By mortality is commonly meant the percentage killed. Read a high mortality as fewer survivors.

Consider twelve compounds from patent publication US12583851B2, “Heteroaryl-substituted pyrazine derivatives as pesticides” (Elanco Animal Health GmbH, priority 2019, dated 2026).

Common to all, as to type: in vivo
The test system of experiment [1] is Rhipicephalus (Boophilus) microplus larvae (strain Parkhurst, resistant against synthetic pyrethroids). The experiment is described as follows: Rhipicephalus (Boophilus) microplus in-vitro contact test, larval cattle tick. As to conditions: after 48 hours, read-out: efficacy (larvae dead or moribund); for pest or weed control at 1 µg/cm2, 100 g/ha: 1 μg/cm^2 (=100 g/ha); for pest or weed control at 5 µg/cm2, 500 g/ha: 5 μg/cm^2 (=500 g/ha). Summed up:
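Pyrethroid-resistant larvae (strain Parkhurst), 20–50 per tube, exposed by contact to a dried acetone film of compound (5 μg/cm² at 900 ppm) for 48 h at 27 °C and 85% humidity. Percent dead or moribund larvae scored from negative geotactic behaviour.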

The test system of experiment [2] is adult cat fleas (Ctenocephalides felis). The experiment is described as follows: Ctenocephalides felis in-vitro contact test, adult cat flea. As to conditions: after 48 hours, read-out: efficacy (fleas dead or moribund); for pest or weed control at 5 µg/cm2, 500 g/ha: 5 μg/cm^2 (=500 g/ha); for pest or weed control at 1 µg/cm2, 100 g/ha: 1 μg/cm^2 (=100 g/ha). Here is the method: Ctenocephalides felis—In-Vitro Contact Tests Adult Cat Flea
9 mg compound is solved in 1 ml acetone and diluted with acetone to the desired concentration. 250 μL of the test solution is filled in 25 mL glass test tubes and homogeneously distributed on the inner walls by rotation and tilting on a shaking device (2 h at 30 rpm). With a compound concentration of 900 ppm, an inner surface of 44.7 cm^2 and a homogeneous distribution, a dose of 5 μg/cm^2 is achieved.
After the solvent has evaporated, each test tube is filled with 5-10 adult cat fleas (Ctenocephalides felis), closed with a perforated lid and incubated in a lying position at room temperature and relative humidity. After 48 hours efficacy is determined. The fleas are patted on the ground of the tubes and are incubated on a heating plate at 45-50° C. for at most 5 minutes Immotile or uncoordinated moving fleas, which are not able to escape the heat by climbing upwards, are marked as dead or moribund.
An efficacy of 100% means all fleas are dead or moribund; 0% means no fleas are dead or moribund.

The subject of experiment [3] is adult brown dog ticks (Rhipicephalus sanguineus). The experiment is described as follows: Rhipicephalus sanguineus in-vitro contact test, adult brown dog ticks. The following applies: 48 h, after 48 hours, read-out: efficacy (ticks dead or moribund); for pest or weed control at 5 µg/cm2, 500 g/ha: 5 μg/cm^2 (=500 g/ha). On the procedure:
Rhipicephalus sanguineus—In-Vitro Contact Tests with Adult Brown Dog Ticks
9 mg compound is solved in 1 mL acetone and diluted with acetone to the desired concentration. […] the test solution is filled in 25 mL glass test tubes and homogeneously distributed on the inner walls by rotation and tilting on a shaking device (2 h at 30 rpm). With a compound concentration of 900 ppm, an inner surface of 44.7 cm^2 and a homogeneous distribution, a dose of 5 μg/cm^2 is achieved.
After the solvent has evaporated, each test tube is filled with 5-10 adult brown dog ticks (Rhipicephalus sanguineus), closed with a perforated lid and incubated in a lying position at room temperature and relative humidity. After 48 hours efficacy is determined. The ticks are patted on the ground of the tubes and are incubated on a heating plate at 45-50° C. for at most 5 minutes Immotile or uncoordinated moving ticks, which are not able to escape the heat by climbing upwards, are marked as dead or moribund.
An efficacy of 100% means all ticks are dead or moribund; 0% means no ticks are dead or moribund.

The subject of experiment [4] is larvae of the banded cucumber beetle (Diabrotica balteata). Nature of the experiment: Diabrotica balteata spray test. The following applies: 168 h, after 7 days, read-out: efficacy (seedling growth); for pest or weed control at 6.4 µg/disc, 20 g/ha: 20 g/ha (=6.4 μg/well); for pest or weed control at 32 µg/disc, 100 g/ha: 100 g/ha (=32 μg/well). The method in brief: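 Efficacy was read 7 days after infesting each unit with 10–20 banded cucumber beetle larvae, as % of seedlings growing like untreated, uninfested controls. Before infestation, wheat seeds germinated 1 day on agar (5 per well) were sprayed with the active ingredient. The active was formulated in acetone/DMF and diluted in water containing emulsifier.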

Experiment [5] concerns fall armyworm larvae (Spodoptera frugiperda). Nature of the experiment: Spodoptera frugiperda spray test. The following applies: 168 h, maize leaf sections, after 7 days. Summed up:
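Percent larval kill read at day 7, from 0% (no caterpillars dead) to 100% (all dead). Larvae were placed on dried Zea mays leaf discs previously sprayed with test preparations made from an acetone/DMF solution diluted in 1000 ppm emulsifier-containing water.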

The subject of experiment [6] is adult engorged female ticks (Rhipicephalus microplus). Nature of the experiment: Rhipicephalus (Boophilus) microplus injection test. As to conditions: 168 h, 4 μg/animal, egg deposition after 7 days, read-out: efficacy (infertile eggs). Here is the method:
Rhipicephalus (Boophilus) microplus—Injection Test
Solvent: dimethyl sulfoxide
To produce a suitable preparation of active compound, 10 mg of active compound are dissolved in 0.5 mL solvent, and the concentrate is diluted with solvent to the desired concentration.
Five adult engorged female ticks (Rhipicephalus microplus) are injected with 1 μL compound solution into the abdomen. The ticks are transferred into replica plates and incubated in a climate chamber.
After 7 days egg deposition of fertile eggs is monitored. Eggs where fertility is not visible are stored in a climate chamber till hatching after about 42 days. An efficacy of 100% means all eggs are infertile; 0% means all eggs are fertile.

As to `CC(NC(=O)c1cc(Cl)cc(S(C)(=O)=O)c1)c1nccnc1-n1cc(C#N)cn1` (racemic) [Example I-103, (rac)-3-Chloro-N-{1-[3-(4-cyano-1H-pyrazol-1-yl)pyrazin-2-yl]ethyl}-5-(methanesulfonyl)benzamide], in experiment [1], the pest or weed control at 1 µg/cm2, 100 g/ha was 90% and the pest or weed control at 5 µg/cm2, 500 g/ha turned out to be 90%. In experiment [2], the pest or weed control at 5 µg/cm2, 500 g/ha was determined as 80%. Moreover, the pest or weed control at 5 µg/cm2, 500 g/ha in experiment [3] amounted to 80%. For the same compound, in experiment [4], the pest or weed control at 6.4 µg/disc, 20 g/ha stood at 100% and the pest or weed control at 32 µg/disc, 100 g/ha turned out to be 100%. For the same compound, the mortality at 100 g/ha in experiment [5] was 100%.
`CC(NC(=O)c1cc(C(F)(F)F)cc(C(F)(F)F)c1)c1nccnc1-c1ncc(C(=O)N2CCCCC2)s1` (racemic) [Example I-64, (rac)-N-[1-{3-[5-(Piperidine-1-carbonyl)-1,3-thiazol-2-yl]pyrazin-2-yl}ethyl]-3,5-bis(trifluoromethyl)benzamide]: the pest or weed control at 1 µg/cm2, 100 g/ha in experiment [1] and in experiment [2] was 100% throughout. For the same compound, the pest or weed control at 5 µg/cm2, 500 g/ha in experiment [1], in experiment [2] and in experiment [3] was 100% in each case. In experiment [6], the pest or weed control at 0.004 mg worked out at 100%.
With `CC(NC(=O)c1cc(C(F)(F)F)cc(C(F)(F)F)c1)c1nccnc1-n1cc(C(=O)N2C[C@@H](C)O[C@@H](C)C2)cn1` (mixture of isomers) [Example I-138, (rac)-N-[1-(3-{4-[(cis)-2,6-Dimethylmorpholine-4-carbonyl]-1H-pyrazol-1-yl}pyrazin-2-yl)ethyl]-3,5-bis(trifluoromethyl)benzamide], the pest or weed control at 1 µg/cm2, 100 g/ha in experiment [1] and in experiment [3] (1 μg/cm^2 (=100 g/ha)) was 100% each time. Further, the pest or weed control at 5 µg/cm2, 500 g/ha in experiment [1] and in experiment [3] was 100% throughout. The pest or weed control at 32 µg/disc, 100 g/ha in experiment [4] is 100%. For the same compound, the mortality at 100 g/ha in experiment [5] was 100%.
`CC(NC(=O)c1cc(C(F)(F)F)cc(C(F)(F)F)c1)c1nccnc1-c1ncc(C(=O)N2CCCOCC2)s1` (racemic) [Example I-68, (rac)-N-[1-{3-[5-(1,4-Oxazepane-4-carbonyl)-1,3-thiazol-2-yl]pyrazin-2-yl}ethyl]-3,5-bis(trifluoromethyl)benzamide]: the pest or weed control at 1 µg/cm2, 100 g/ha in experiment [1] and in experiment [2] was 100% in each case. The pest or weed control at 5 µg/cm2, 500 g/ha in experiment [1], in experiment [2] and in experiment [3] was 100% in each case. Further, the pest or weed control at 32 µg/disc, 100 g/ha in experiment [4] was 100%.
Turning to `CC(NC(=O)c1cc(Cl)cc(C(F)(F)F)c1)c1nccnc1-c1ncc(C(=O)N2CCOCC2)s1` (racemic) [Example I-59, (rac)-3-Chloro-N-[1-{3-[5-(morpholine-4-carbonyl)-1,3-thiazol-2-yl]pyrazin-2-yl}ethyl]-5-(trifluoromethyl)benzamide], in experiment [1], the pest or weed control at 1 µg/cm2, 100 g/ha was determined as 100%. In addition, the pest or weed control at 5 µg/cm2, 500 g/ha in experiment [1] and in experiment [3] was 100% each time. The pest or weed control at 32 µg/disc, 100 g/ha in experiment [4] was found to be 100%. Moreover, in experiment [5], the mortality at 100 g/ha worked out at 83%.
As for `CC(NC(=O)c1cc(Br)cc(OC(F)(F)F)c1)c1nccnc1-c1nccs1` (racemic) [Example I-53, (rac)-3-Bromo-N-{1-[3-(1,3-thiazol-2-yl)pyrazin-2-yl]ethyl}-5-(trifluoromethoxy)benzamide], the pest or weed control at 0.004 mg in experiment [6] is 80%. Also, in experiment [4], the pest or weed control at 6.4 µg/disc, 20 g/ha came to 80% and the pest or weed control at 32 µg/disc, 100 g/ha is 100%.
Consider `CCN(C)C(=O)c1cnc(-c2nccnc2C(C)NC(=O)c2cc(C(F)(F)F)cc(C(F)(F)F)c2)s1` (racemic) [Example I-72, (rac)-2-(3-{1-[3,5-Bis(trifluoromethyl)benzamido]ethyl}pyrazin-2-yl)-N-ethyl-N-methyl-1,3-thiazole-5-carboxamide], for which, in experiment [1], the pest or weed control at 1 µg/cm2, 100 g/ha was 100% and the pest or weed control at 5 µg/cm2, 500 g/ha was determined as 100%. Besides, the pest or weed control at 5 µg/cm2, 500 g/ha in experiment [3] was determined as 80%. Moreover, in experiment [4], the pest or weed control at 6.4 µg/disc, 20 g/ha came out at 100% and the pest or weed control at 32 µg/disc, 100 g/ha was determined as 100%. The mortality at 100 g/ha in experiment [5] came to 100%.
For `CC(NC(=O)c1cc(Br)cc(C#N)c1)c1nccnc1-c1ccc(Cl)cn1` (racemic) [Example I-48, (rac)-3-Bromo-N-{1-[3-(5-chloropyridin-2-yl)pyrazin-2-yl]ethyl}-5-cyanobenzamide], the pest or weed control at 5 µg/cm2, 500 g/ha in experiment [3] was 80%. Also, in experiment [4], the pest or weed control at 6.4 µg/disc, 20 g/ha came out at 80% and the pest or weed control at 32 µg/disc, 100 g/ha is 100%. Also, the mortality at 100 g/ha in experiment [5] turned out to be 100%.
Consider `CC(NC(=O)c1cc(Br)cc(C(F)(F)F)c1)c1nccnc1-c1ncc(C(=O)N(C)CC2CC2)s1` (racemic) [Example I-119, (rac)-2-(3-{1-[3-Bromo-5-(trifluoromethyl)benzamido]ethyl}pyrazin-2-yl)-N-(cyclopropylmethyl)-N-methyl-1,3-thiazole-5-carboxamide], for which, in experiment [1], the pest or weed control at 1 µg/cm2, 100 g/ha worked out at 100% and the pest or weed control at 5 µg/cm2, 500 g/ha was 100%. Moreover, the pest or weed control at 5 µg/cm2, 500 g/ha in experiment [2] is 90%. In addition, in experiment [4], the pest or weed control at 6.4 µg/disc, 20 g/ha was determined as 100% and the pest or weed control at 32 µg/disc, 100 g/ha worked out at 100%. The mortality at 100 g/ha in experiment [5] worked out at 100%.
As for `CC(NC(=O)c1cc(Cl)cc(OC(F)(F)F)c1)c1nccnc1-c1ccc(Cl)cn1` (centres unmarked) [Example I-21], in experiment [6], the pest or weed control at 0.004 mg is 80%. In experiment [4], the pest or weed control at 6.4 µg/disc, 20 g/ha was 100% and the pest or weed control at 32 µg/disc, 100 g/ha was found to be 100%. In addition, the mortality at 100 g/ha in experiment [5] came out at 100%.
For `CC(NC(=O)c1cc(Br)cc(OC(F)(F)F)c1)c1nccnc1-n1cc(C(F)(F)F)cn1` (racemic) [Example I-94, (rac)-3-Bromo-5-(trifluoromethoxy)-N-[1-{3-[4-(trifluoromethyl)-1H-pyrazol-1-yl]pyrazin-2-yl}ethyl]benzamide], in experiment [1], the pest or weed control at 1 µg/cm2, 100 g/ha was determined as 100% and the pest or weed control at 5 µg/cm2, 500 g/ha worked out at 100%. The pest or weed control at 5 µg/cm2, 500 g/ha in experiment [3] worked out at 80%. In experiment [4], the pest or weed control at 32 µg/disc, 100 g/ha came out at 100%. The same compound gave a mortality at 100 g/ha in experiment [5] of 100%.
Turning to `CC(NC(=O)c1cc(C#N)cc(C(F)(F)F)c1)c1nccnc1-c1nccs1` (racemic) [Example I-56, (rac)-3-Cyano-N-{1-[3-(1,3-thiazol-2-yl)pyrazin-2-yl]ethyl)-5-(trifluoromethyl)benzamide], the pest or weed control at 0.004 mg in experiment [6] turned out to be 100%. For the same compound, in experiment [4], the pest or weed control at 6.4 µg/disc, 20 g/ha was 100% and the pest or weed control at 32 µg/disc, 100 g/ha was 100%. In experiment [5], the mortality at 100 g/ha is 100%.
